Test results taken from US9540385B2, “Pyrrolopyrimidine compounds as kinase inhibitors” (Pharmacyclics LLC, priority 2012, dated 2017).

Experiments:
Type in all cases: biochemical
Settings in all cases: kinase assay by one of methods A, B or C
LCK = LCK (Homo sapiens, UniProt P06239); test: Inhibition of a panel of kinases: LCK
Procedure: (§1) Btk kinase activity is determined using a time-resolved fluorescence resonance energy transfer (TR-FRET) methodology. Measurements are performed in a reaction volume of 50 μL using 96-well assay plates. Kinase enzyme, inhibitor, ATP (at the Km for the kinase), and 1 μM peptide substrate (Biotin-AVLESEEELYSSARQ-NH2) are incubated in a reaction buffer composed of 20 mM Tris, 50 mM NaCl, MgCl2 (5-25 mM depending on the kinase), MnCl2 (0-10 mM), 1 mM DTT, 0.1 mM EDTA, 0.01% bovine serum albumin, 0.005% Tween-20, and 10% DMSO at pH 7.4 for one hour. The reaction is quenched by the addition of 1.2 equivalents of EDTA (relative to divalent cation) in 25 μL of 1× Lance buffer (Perkin-Elmer). Streptavidin-APC (Perkin-Elmer) and Eu-labeled p-Tyr100 antibody (Perkin-Elmer) in 1× Lance buffer are added in a 25 μL volume to give final concentrations of 100 nM and 2.5 nM, respectively, and the mixture is allowed to incubate for one hour. The TR-FRET signal is measured on a multimode plate reader with an excitation wavelength (λEx) of 330 nm and detection wavelengths (λEm) of 615 and 665 nm. Activity is determined by the ratio of the fluorescence at 665 nm to that at 615 nm. For each compound, enzyme activity is measured at various concentrations of compound. Negative control reactions are performed in the absence of inhibitor in replicates of six, and two no-enzyme controls are used to determine baseline fluorescence levels. Inhibition constants, Ki(app), ware obtained using the program BatchKi (Kuzmic et al. (2000), Anal. Biochem. 286:45-50). IC50s are obtained according to the equation: IC50={Ki(app)/(1+[ATP]/Km^ATP)}+[E]total/2;
(§2) For all kinases, [ATP]=Km^ATP, [Btk]total=0.5 nM and [Lck]total=6 nM.
(§3) Kinase activity is measured in vitro using electrophoretic mobility shift assay. The kinase reactions are assembled in a total volume of 25 μL in 384 well plates. The reactions comprise: BTK enzyme (1 nM, N-terminal His6-tagged, recombinant, full-length, human BTK purified from baculovirus Sf21 insect cell system), inhibitor, ATP ([…] the apparent Km for the kinase), fluorescently labeled peptide substrate (1 μM, FAM-GEEPLYWSFPAKKK-NH2) in a reaction buffer composed of 100 mM HEPES, pH7.5, 5 mM MgCl2 1 mM DTT, 0.1% bovine serum albumin, 0.01% Triton X-100, and 1% DMSO. The reaction is incubated for one hour and is quenched by the addition of 45 μL of termination buffer (100 mM HEPES, pH7.5, 0.01% Triton X-100, 30 mM EDTA). The terminated reactions are analyzed using 12 channel LabChip® 3000 microfluidic detection instrument (Caliper Life Sciences). The enzymatic phosphorylation of the peptide results in a change in net charge, enabling electrophoretic separation of product from substrate peptide. As substrate and product peptides are separated, two peaks of fluorescence are observed. Change in the relative fluorescence intensity of the substrate and product peaks is the parameter measured, reflecting enzyme activity. In the presence of an inhibitor, the ratio between product and substrate is altered: the signal of the product decreases, while the signal of the substrate increases.
(§4) Activity in each sample is determined as the product to sum ratio (PSR):P/(S+P), where P is the peak height of the product peptide and S is the peak height of the substrate peptide. For each compound, enzyme activity is measured at various concentrations (12 concentrations of compound spaced by 3× dilution intervals). Negative control samples (0%-inhibition in the absence of inhibitor) and positive control samples (100%-inhibition, in the presence of 20 mM EDTA) are assembled in replicates of four and are used to calculate %-inhibition values for each inhibitor at each concentration. Percent inhibition (Pinh) is determined using following equation: […]

BTK = target: T1, BTK (Homo sapiens, UniProt Q06187); test: Btk in vitro inhibitory activity / inhibition of a panel of kinases (TR-FRET, mobility shift or radiometric filter binding)
T1 construct: purified from insect cells as a full-length construct containing a N-terminal 6×-His tag; His6 (N); made in house; host or cells: insect cells (baculovirus, Sf21)
T1 sequence (Q06187 whole entry): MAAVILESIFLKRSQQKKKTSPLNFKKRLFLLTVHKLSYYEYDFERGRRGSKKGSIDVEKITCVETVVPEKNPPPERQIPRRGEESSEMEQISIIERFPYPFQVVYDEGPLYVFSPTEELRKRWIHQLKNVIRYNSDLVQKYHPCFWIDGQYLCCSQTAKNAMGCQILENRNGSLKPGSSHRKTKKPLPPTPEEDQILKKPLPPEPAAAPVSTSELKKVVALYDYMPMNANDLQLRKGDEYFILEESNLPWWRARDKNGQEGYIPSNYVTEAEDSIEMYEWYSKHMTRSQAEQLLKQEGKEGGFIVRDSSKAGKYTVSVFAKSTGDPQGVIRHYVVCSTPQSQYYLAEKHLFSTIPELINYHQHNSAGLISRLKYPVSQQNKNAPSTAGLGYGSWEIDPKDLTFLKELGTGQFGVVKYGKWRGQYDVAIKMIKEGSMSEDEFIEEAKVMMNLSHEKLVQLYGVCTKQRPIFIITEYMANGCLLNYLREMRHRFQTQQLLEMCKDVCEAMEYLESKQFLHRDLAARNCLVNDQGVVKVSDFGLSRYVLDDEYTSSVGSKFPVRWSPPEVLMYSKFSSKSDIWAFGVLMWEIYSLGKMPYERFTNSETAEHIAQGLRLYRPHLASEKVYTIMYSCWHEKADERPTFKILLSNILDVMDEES
Procedure: as §1, §2, §3, §4

EGFR = EGFR (Homo sapiens, UniProt P00533); test: Inhibition of a panel of kinases: EGFR
EGFR, sequence (P00533 25-1210, species assumed): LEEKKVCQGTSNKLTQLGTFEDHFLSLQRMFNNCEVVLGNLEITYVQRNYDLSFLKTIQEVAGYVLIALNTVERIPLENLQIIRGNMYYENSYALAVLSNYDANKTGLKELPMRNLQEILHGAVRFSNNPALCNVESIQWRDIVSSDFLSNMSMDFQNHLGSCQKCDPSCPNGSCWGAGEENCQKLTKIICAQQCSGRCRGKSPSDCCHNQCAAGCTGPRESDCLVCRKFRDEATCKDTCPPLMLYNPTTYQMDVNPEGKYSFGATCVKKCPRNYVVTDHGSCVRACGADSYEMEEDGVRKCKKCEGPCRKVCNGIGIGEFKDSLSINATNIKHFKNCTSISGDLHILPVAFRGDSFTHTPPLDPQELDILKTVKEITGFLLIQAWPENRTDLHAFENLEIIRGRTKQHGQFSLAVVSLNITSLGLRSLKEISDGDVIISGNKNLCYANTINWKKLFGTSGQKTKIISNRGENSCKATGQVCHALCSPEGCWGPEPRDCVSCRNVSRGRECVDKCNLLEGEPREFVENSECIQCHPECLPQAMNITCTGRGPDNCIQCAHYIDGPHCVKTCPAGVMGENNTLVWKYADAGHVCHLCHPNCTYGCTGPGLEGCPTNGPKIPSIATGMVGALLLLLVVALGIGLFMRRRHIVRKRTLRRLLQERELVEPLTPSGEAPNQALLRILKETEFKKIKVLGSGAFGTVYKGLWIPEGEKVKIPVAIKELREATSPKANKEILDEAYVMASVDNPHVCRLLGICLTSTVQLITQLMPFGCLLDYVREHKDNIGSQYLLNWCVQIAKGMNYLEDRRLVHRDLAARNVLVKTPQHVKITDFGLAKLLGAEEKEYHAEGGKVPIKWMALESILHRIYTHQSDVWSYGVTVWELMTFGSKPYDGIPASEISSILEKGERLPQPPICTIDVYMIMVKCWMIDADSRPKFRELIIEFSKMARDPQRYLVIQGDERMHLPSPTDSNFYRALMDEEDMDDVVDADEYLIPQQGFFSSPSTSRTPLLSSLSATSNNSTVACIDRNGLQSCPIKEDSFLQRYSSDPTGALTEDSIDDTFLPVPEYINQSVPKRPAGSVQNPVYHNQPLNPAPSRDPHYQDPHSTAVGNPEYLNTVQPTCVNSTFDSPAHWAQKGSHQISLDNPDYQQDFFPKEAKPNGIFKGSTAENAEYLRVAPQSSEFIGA
Procedure: as §1, §2, §3, §4

LCK, sequence (P06239 whole entry, species assumed): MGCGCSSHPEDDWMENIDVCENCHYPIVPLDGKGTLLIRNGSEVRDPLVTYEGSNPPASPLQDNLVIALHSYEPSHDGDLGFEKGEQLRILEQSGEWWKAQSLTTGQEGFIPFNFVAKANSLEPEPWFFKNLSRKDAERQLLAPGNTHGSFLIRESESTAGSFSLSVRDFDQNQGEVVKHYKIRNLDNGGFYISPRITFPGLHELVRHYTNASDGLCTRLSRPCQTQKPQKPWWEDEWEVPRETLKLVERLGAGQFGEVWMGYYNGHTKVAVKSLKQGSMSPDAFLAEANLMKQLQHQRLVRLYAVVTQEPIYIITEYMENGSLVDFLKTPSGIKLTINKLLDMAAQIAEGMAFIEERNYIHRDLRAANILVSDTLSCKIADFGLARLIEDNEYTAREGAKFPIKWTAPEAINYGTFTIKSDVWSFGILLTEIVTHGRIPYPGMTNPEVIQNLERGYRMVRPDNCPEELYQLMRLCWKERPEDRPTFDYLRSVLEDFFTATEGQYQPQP

Row | Compound | IC50 (LCK) [nM] | IC50 (BTK) [nM] | IC50 (EGFR) [nM]
1 | CN(C)C/C=C/C(=O)N1CC[C@@H](n2c(Cl)c(-c3ccc(Oc4ccccc4)cc3)c3c(N)ncnc32)C1 [Compound 14, (R,E)-1-(3-(4-amino-6-chloro-5-(4-phenoxyphenyl)-7H-pyrrolo[2,3-d]pyrimidin-7-yl)pyrrolidin-1-yl)-4-(dimethylamino)but-2-en-1-one] | < 100 | < 100 | 1000 to 10000
2 | CN(C)C/C=C/C(=O)N1CC[C@@H](n2c(F)c(-c3ccc(Oc4ccccc4)cc3)c3c(N)ncnc32)C1 [Compound 13, (R,E)-1-(3-(4-amino-6-fluoro-5-(4-phenoxyphenyl)-7H-pyrrolo[2,3-d]pyrimidin-7-yl)pyrrolidin-1-yl)-4-(dimethylamino)but-2-en-1-one] | < 100 | < 100 | 1000 to 10000
3 | CN(C/C=C/C(=O)N1CC[C@@H](n2c(Cl)c(-c3ccc(Oc4ccccc4)cc3)c3c(N)ncnc32)C1)C1CC1 [Compound 8, (R,E)-1-(3-(4-amino-6-chloro-5-(4-phenoxyphenyl)-7H-pyrrolo[2,3-d]pyrimidin-7-yl)pyrrolidin-1-yl)-4-(cyclopropyl(methyl)amino)but-2-en-1-one] | < 100 | < 100 | 1000 to 10000
4 | CN(C/C=C/C(=O)N1CC[C@@H](n2c(Cl)c(-c3ccc(Cl)cc3)c3c(N)ncnc32)C1)C1CC1 [Compound 38, (R,E)-1-(3-(4-amino-6-chloro-5-(4-chlorophenyl)-7H-pyrrolo[2,3-d]pyrimidin-7-yl)pyrrolidin-1-yl)-4-(cyclopropyl(methyl)amino)but-2-en-1-one] | 1000 to 10000 | < 100 | 
5 | C=CC(=O)N1CC[C@@H](n2c(F)c(-c3ccc(Cl)cc3)c3c(N)ncnc32)C1 [Compound 42, (R)-1-(3-(4-amino-5-(4-chlorophenyl)-6-fluoro-7H-pyrrolo[2,3-d]pyrimidin-7-yl)pyrrolidin-1-yl)prop-2-en-1-one] | 100 to 1000 | < 100 | < 100
6 | C=CC(=O)N1CC[C@@H](n2c(C)c(-c3ccc(Cl)cc3)c3c(N)ncnc32)C1 [Compound 44, (R)-1-(3-(4-amino-5-(4-chlorophenyl)-6-methyl-7H-pyrrolo[2,3-d]pyrimidin-7-yl)pyrrolidin-1-yl)prop-2-en-1-one] | 100 to 1000 | < 100 | < 100
7 | CN(C(=O)/C=C/CN(C)C1CC1)c1cccc(-n2c(Cl)c(-c3ccc(Cl)cc3)c3c(N)ncnc32)c1 [Compound 23, (E)-N-(3-(4-amino-6-chloro-5-(4-chlorophenyl)-7H-pyrrolo[2,3-d]pyrimidin-7-yl)phenyl)-4-(cyclopropyl(methyl)amino)-N-methylbut-2-enamide] | 1000 to 10000 | < 100 | 1000 to 10000
8 | C=CC(=O)N1CC[C@@H](n2c(Cl)c(-c3ccc(Cl)cc3)c3c(N)ncnc32)C1 [Compound 39, (R)-1-(3-(4-amino-6-chloro-5-(4-chlorophenyl)-7H-pyrrolo[2,3-d]pyrimidin-7-yl)pyrrolidin-1-yl)prop-2-en-1-one] | 100 to 1000 | < 100 | < 100
9 | CN(C/C=C/C(=O)N1CC[C@@H](n2c(C#N)c(-c3ccc(Oc4ccccc4)cc3)c3c(N)ncnc32)C1)[C@@H]1CCOC1 [Compound 107, 4-amino-7-((R)-1-((E)-4-(methyl((R)-tetrahydrofuran-3-yl)amino)but-2-enoyl)pyrrolidin-3-yl)-5-(4-phenoxyphenyl)-7H-pyrrolo[2,3-d]pyrimidine-6-carbonitrile] |  | < 100 | 
10 | CC(C)c1c(-c2ccc(Oc3ccccc3)cc2)c2c(N)ncnc2n1[C@@H]1CCN(C(=O)/C=C/CN(C)C2CC2)C1 [Compound 118, (R,E)-1-(3-(4-amino-6-isopropyl-5-(4-phenoxyphenyl)-7H-pyrrolo[2,3-d]pyrimidin-7-yl)pyrrolidin-1-yl)-4-(cyclopropyl(methyl)amino)but-2-en-1-one] |  | 100 to 1000 | 
